This is an account of results in the supplement of paper PMC11208160.
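Also: IS621 bridge recombinase in Escherichia coli cells against a fixed T5 target plasmid.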

The nature of this data set: recombinant UMI read abundance after kanamycin selection (control-corrected) (log10(CPM+1)); higher = more efficient recombination; extreme values may be limits of the assay; sequences stand for … in AGTGCAGAGAAAATCGGCCAGTTTTCTCTGCCTGCAGTCCGCATGCCGTGGGACCCCTTGGGTTCTAACCTGTTGCCTAGATTTATGCAGCGGACTGCCTTTCTCCCAAAGTGATAAACCGG…AGGTTGGTTTCACT; site = the 11-nt donor. Put shortly: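 Values, expressed as log10(CPM+1), derive from recombinant UMI counts converted to CPM, averaged across replicates and scaled by control-derived factors. Plating was with IPTG (0.07 mM) plus kanamycin or unselected, two replicates each. The screen pooled donor and donor-binding-loop pairs for the IS621 bridge recombinase in Escherichia coli.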
Take “GGAAGCTCATGGACCGGTTTTCCCGGTAATCCGTATTTGTT (site GGAAGCTCTAA)”: the “recombinant UMI read abundance (log10)” value was determined as 2.26.
The result for “GGAATGGCATGGACCGGTTTTCCCGGTAATCCGTATTTGGT (site GGAATGGCTAC)” reads 1.5; that for “GGAATGGCATGGACCGGTTTTCCCGGTAATCCGTATTTGGT (site GGACTGGCTAC)”, 0.00772; that for “GGAATGGCATGGACCGGTTTTCCCGGTAATCCGTATTTGGT (site GGAGTGGCTAC)”, 0.00394.
To “GGAATGGCATGGACCGGTTTTCCCGGTAATCCGTATTTGGT (site GGATTGGCTAC)” belongs 0.00922; to “GGAATTGCATGGACCGGTTTTCCCGGTAATCCGTATTTGCC (site GGAATTGCTGG)”, 0; to “GGACACGCATGGACCGGTTTTCCCGGTAATCCGTATTTGCT (site GGACACGCTAG)”, 2.59.
“GGACAGACATGGACCGGTTTTCCCGGTAATCCGTATTTGCC (site GGAAAGACTGG)”: the “recombinant UMI read abundance (log10)” value amounted to 0.
Turning to “GGACAGACATGGACCGGTTTTCCCGGTAATCCGTATTTGCC (site GGACAGACTGG)”, the “recombinant UMI read abundance (log10)” value worked out at 2.42.
With “GGACAGACATGGACCGGTTTTCCCGGTAATCCGTATTTGCC (site GGAGAGACTGG)”, the “recombinant UMI read abundance (log10)” value worked out at 0.
To “GGACAGACATGGACCGGTTTTCCCGGTAATCCGTATTTGCC (site GGATAGACTGG)” belongs 1.84; to “GGACAGTCATGGACCGGTTTTCCCGGTAATCCGTATTTGTC (site GGACAGTCTGA)”, 3.04; to “GGACCAACATGGACCGGTTTTCCCGGTAATCCGTATTTGTA (site GGACCAACTTA)”, 1.09.
The result for “GGACCAACATGGACCGGTTTTCCCGGTAATCCGTATTTGTA (site GGCCCAACTTA)” reads 0.00566; that for “GGACCAACATGGACCGGTTTTCCCGGTAATCCGTATTTGTA (site GGGCCAACTTA)”, 0.0083; that for “GGACCAACATGGACCGGTTTTCCCGGTAATCCGTATTTGTA (site GGTCCAACTTA)”, 0.0428.
The result for “GGACGTACATGGACCGGTTTTCCCGGTAATCCGTATTTGTG (site GGACGTACTCA)” reads 1.09.
On to “GGACTGGCATGGACCGGTTTTCCCGGTAATCCGTATTTGGT (site GGAATGGCTAC)”, for which the “recombinant UMI read abundance (log10)” value came to 0.00409.
The result for “GGACTGGCATGGACCGGTTTTCCCGGTAATCCGTATTTGGT (site GGACTGGCTAC)” reads 0.371.
The result for “GGACTGGCATGGACCGGTTTTCCCGGTAATCCGTATTTGGT (site GGAGTGGCTAC)” reads 0.0324; that for “GGACTGGCATGGACCGGTTTTCCCGGTAATCCGTATTTGGT (site GGATTGGCTAC)”, 0.0234.
The result for “GGACTTCCATGGACCGGTTTTCCCGGTAATCCGTATTTGGT (site GGACTTCCTAC)” reads 1.16; that for “GGAGAGACATGGACCGGTTTTCCCGGTAATCCGTATTTGCC (site GGAAAGACTGG)”, 0.
Take “GGAGAGACATGGACCGGTTTTCCCGGTAATCCGTATTTGCC (site GGACAGACTGG)”: the “recombinant UMI read abundance (log10)” value was found to be 0.
The result for “GGAGAGACATGGACCGGTTTTCCCGGTAATCCGTATTTGCC (site GGAGAGACTGG)” reads 0; that for “GGAGAGACATGGACCGGTTTTCCCGGTAATCCGTATTTGCC (site GGATAGACTGG)”, 0.
To “GGAGATTCATGGACCGGTTTTCCCGGTAATCCGTATTTGAC (site GGAGATTCTGT)” belongs 0; to “GGAGCACCATGGACCGGTTTTCCCGGTAATCCGTATTTGCA (site GGAGCACCTTG)”, 0.
To “GGAGCACCATGGACCGGTTTTCCCGGTAATCCGTATTTGCA (site GGCGCACCTTG)” belongs 0; to “GGAGCACCATGGACCGGTTTTCCCGGTAATCCGTATTTGCA (site GGGGCACCTTG)”, 0.
As for “GGAGCACCATGGACCGGTTTTCCCGGTAATCCGTATTTGCA (site GGTGCACCTTG)”, the “recombinant UMI read abundance (log10)” value came out at 0.00599.
The result for “GGAGCCCCATGGACCGGTTTTCCCGGTAATCCGTATTTGGG (site GGAGCCCCTCC)” reads 0.00903; that for “GGAGGCCCATGGACCGGTTTTCCCGGTAATCCGTATTTGCC (site GGAGGCCCTGG)”, 0; that for “GGAGGTACATGGACCGGTTTTCCCGGTAATCCGTATTTGAC (site GAAGGTACTGT)”, 0.759.
Turning to “GGAGGTACATGGACCGGTTTTCCCGGTAATCCGTATTTGAC (site GCAGGTACTGT)”, the “recombinant UMI read abundance (log10)” value was determined as 0.553.
To “GGAGGTACATGGACCGGTTTTCCCGGTAATCCGTATTTGAC (site GGAGGTACTGT)” belongs 1.39; to “GGAGGTACATGGACCGGTTTTCCCGGTAATCCGTATTTGAC (site GTAGGTACTGT)”, 0; to “GGAGTAGCATGGACCGGTTTTCCCGGTAATCCGTATTTGGT (site GGAGTAGCTAC)”, 1.18.
The result for “GGAGTAGCATGGACCGGTTTTCCCGGTAATCCGTATTTGGT (site GGAGTCGCTAC)” reads 0.0165; that for “GGAGTAGCATGGACCGGTTTTCCCGGTAATCCGTATTTGGT (site GGAGTGGCTAC)”, 0.49; that for “GGAGTAGCATGGACCGGTTTTCCCGGTAATCCGTATTTGGT (site GGAGTTGCTAC)”, 0.
To “GGAGTATCATGGACCGGTTTTCCCGGTAATCCGTATTTGAC (site CTAGTATCTGT)” belongs 0; to “GGAGTATCATGGACCGGTTTTCCCGGTAATCCGTATTTGAC (site GGAGTATCTGT)”, 2.66.
With “GGAGTCGCATGGACCGGTTTTCCCGGTAATCCGTATTTGCG (site GAAGTCGCTCG)”, the “recombinant UMI read abundance (log10)” value was determined as 0.00287.
The result for “GGAGTCGCATGGACCGGTTTTCCCGGTAATCCGTATTTGCG (site GCAGTCGCTCG)” reads 0.021; that for “GGAGTCGCATGGACCGGTTTTCCCGGTAATCCGTATTTGCG (site GGAGTCGCTCG)”, 1.28; that for “GGAGTCGCATGGACCGGTTTTCCCGGTAATCCGTATTTGCG (site GTAGTCGCTCG)”, 0.0226.
To “GGAGTCTCATGGACCGGTTTTCCCGGTAATCCGTATTTGTC (site GGAGTCTCTGA)” belongs 2.36; to “GGAGTGCCATGGACCGGTTTTCCCGGTAATCCGTATTTGGA (site GGAGTGCCTTC)”, 0.0188.
The result for “GGAGTGTCATGGACCGGTTTTCCCGGTAATCCGTATTTGGT (site GGAGTGACTAC)” reads 0.192; that for “GGAGTGTCATGGACCGGTTTTCCCGGTAATCCGTATTTGGT (site GGAGTGCCTAC)”, 0.00939.
On to “GGAGTGTCATGGACCGGTTTTCCCGGTAATCCGTATTTGGT (site GGAGTGGCTAC)”, for which the “recombinant UMI read abundance (log10)” value was determined as 0.0122.
